Test results taken from patent US11655216B2 (priority 2016, dated 2023).
pEC50: −log10 of the molar value. Like-named read-outs stand apart in the source and are kept apart here.

How the values were obtained:
[1] = target: T1, glutathione-S-transferase (GST) tagged LXRbeta LBD (ligand binding domain) (Homo sapiens, UniProt P55055); experiment: LanthaScreen TR-FRET Liver X Receptor Coactivator Assay, LXR beta; assay type: biochemical; conditions: for pEC50: LXR beta IP, potency (Inflection Point), compound-induced co-activator recruitment, TR-FRET; for Emax: read-out: LXR beta actiivty at max dose, efficacy (% Emax) in relation to reference dual agonist T0901317
T1 construct: purchased Invitrogen pv4658
T1 sequence (P55055 222-460 limits assumed): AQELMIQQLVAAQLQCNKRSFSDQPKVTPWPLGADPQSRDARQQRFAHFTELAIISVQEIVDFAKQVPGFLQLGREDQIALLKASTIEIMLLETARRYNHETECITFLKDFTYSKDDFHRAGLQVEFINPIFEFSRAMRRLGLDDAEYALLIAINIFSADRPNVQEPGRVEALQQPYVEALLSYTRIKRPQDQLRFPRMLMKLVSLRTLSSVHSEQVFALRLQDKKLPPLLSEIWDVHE
Procedure, shortened: (§1)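 TR-FRET coactivator recruitment read-out: compounds first received either LBD, followed by a mix of terbium-labelled anti-GST antibody and fluorescein coactivator peptide. Signal measured by time-resolved FRET once plates had incubated at room temperature.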

[2] = target: T2, glutathione-S-transferase (GST) tagged LXRalpha LBD (ligand binding domain) (Homo sapiens, UniProt Q13133); experiment: biochemical; conditions: for pEC50 / LXR alpha IP: potency (Inflection Point), compound-induced co-activator recruitment, TR-FRET
T2 construct: purchased Invitrogen pv4655
T2 sequence (Q13133 209-447 limits assumed): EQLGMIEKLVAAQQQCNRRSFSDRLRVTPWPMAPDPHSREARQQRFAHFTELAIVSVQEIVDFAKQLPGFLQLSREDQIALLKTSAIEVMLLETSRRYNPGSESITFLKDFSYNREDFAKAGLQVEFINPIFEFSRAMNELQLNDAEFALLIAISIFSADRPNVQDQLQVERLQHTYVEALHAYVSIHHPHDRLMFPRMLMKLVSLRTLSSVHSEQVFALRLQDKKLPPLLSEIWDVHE
Procedure, shortened: as §1

[3] = read-out: LXR alpha actiivty at max dose, efficacy (% Emax) in relation to reference dual agonist T0901317
[4] = efficacy (% Emax) in relation to reference dual agonist T0901317, read-out: LXR alpha actiivty at max dose

Row | SMILES | pEC50 [1] | Emax [1] [%] | pEC50 ([2]; LXR alpha IP) | Emax [2, 4] [%] | Emax [2, 3] [%] | LXR alpha IP [2] | pEC50 ([2]; read-out: LXR alpha IP)
1 | CN(C)C(=O)c1ccc(O[C@H]2C[C@@H](CC3CCN(C(=O)[C@](O)(c4cccc(C5CC5)c4)C(F)(F)F)CC3)C2)cc1Cl (single isomer, unassigned) [Example 37-5, 2-chloro-4-((1R,3s)-3-((1-((R or S)-2-(3-cyclopropylphenyl)-3,3,3-trifluoro-2-hydroxypropanoyl)piperidin-4-yl)methyl)cyclobutoxy)-N,N-dimethylbenzamide] | 8.22 | 134 | 6.40 |  | 30 |  | 
2 | C[C@@H](CCC1CCN(C(=O)[C@](O)(c2cc(F)cc(F)c2)C(F)(F)F)CC1)COc1ccc(C(=O)N(C)C)c(Cl)c1 (single isomer, unassigned) [Example 23-3, 2-chloro-4-((S or R)-4-(1-((R or S)-2-(3,5-difluorophenyl)-3,3,3-trifluoro-2-hydroxypropanoyl)piperidin-4-yl)-2-methylbutoxy)-N,N-dimethylbenzamide] | 7.92 | 89 | 6.82 |  | 42 |  | 
3 | COc1cccc([C@@](O)(C(=O)N2CCC(C[C@H]3C[C@@H](Oc4ccc(C(=O)N(C)C)c(Cl)c4)C3)CC2)C(F)F)c1 (single isomer, unassigned) [Example 37-8, 2-chloro-4-((1R,3s)-3-((1-((R or S)-3,3-difluoro-2-hydroxy-2-(3-methoxyphenyl)propanoyl)piperidin-4-yl)methyl)cyclobutoxy)-N,N-dimethylbenzamide] | 6.45 | 51 |  |  | 0 | No IP | 
4 | CN(C)C(=O)c1ccc(OCCCCC2CCN(C(=O)C3(c4ccccc4)CCCO3)CC2)cc1Cl (single isomer, unassigned) [Example 3-5, (S or R)-2-chloro-N,N-dimethyl-4-(4-(1-(2-phenyl-tetrahydrofuran-2-carbonyl)piperidin-4-yl)butoxy)benzamide] | 7.04 | 54 |  |  | 0 | No IP | 
5 | COc1cccc([C@@](O)(C(=O)N2CCC(CCCCOc3ccc(C(=O)N(C)C)c(C#N)n3)CC2)C(F)(F)F)c1 (single isomer, unassigned) [Example 4-2, (R or S)-2-cyano-N,N-dimethyl-6-(4-(1-(3,3,3-trifluoro-2-hydroxy-2-(3-methoxyphenyl)propanoyl)piperidin-4-yl)butoxy) nicotinamide] | 7.92 | 81 | 6.31 |  | 28 |  | 
6 | CN(C)C(=O)c1ccc(OC(F)(F)CCCC2CCN(C(=O)C(O)(c3ccccc3)C(F)(F)F)CC2)cc1Cl (single isomer, unassigned) [Example 19-1, (R or S)-2-chloro-4-(1,1-difluoro-4-(1-(3,3,3-trifluoro-2-hydroxy-2-phenylpropanoyl)piperidin-4-yl)butoxy)-N,N-dimethylbenzamide] | 7.07 | 75 |  | 23 |  |  | 5.93
7 | CCc1cccc(C(O)(C(=O)N2CCC(CCCCOc3ccc(C(=O)N(C)C)c(Cl)c3)CC2)C(F)(F)F)c1 (single isomer, unassigned) [Example 3-12, (R or S)-2-chloro-4-(4-(1-(2-(3-ethylphenyl)-3,3,3-trifluoro-2-hydroxypropanoyl)piperidin-4-yl)butoxy)-N,N-dimethylbenzamide] | 7.80 | 76 |  |  | 15 | No IP | 

The next lines start with results.

Row | pEC50 [1] | Emax [1] [%] | pEC50 ([2]; LXR alpha IP) | Emax [2, 4] [%] | SMILES | Emax [2, 3] [%] | LXR alpha IP [2] | pEC50 ([2]; read-out: LXR alpha IP)
8 | 8.70 | 116 | 7.55 |  | CNC(=O)c1ccc(OCC[C@@H]2C[C@@H]2C2CCN(C(=O)[C@](O)(c3cc(F)cc(F)c3)C(F)(F)F)CC2)cc1Cl (single isomer, unassigned) [Example 10-3, 2-chloro-4-(2-((1S,2R or 1R, 2S)-2-(1-((R or S)-2-(3,5-difluorophenyl)-3,3,3-trifluoro-2-hydroxypropanoyl)piperidin-4-yl)cyclopropyl)ethoxy)-N-methylbenzamide] | 63 |  | 
9 | 8.05 | 100 | 6.73 |  | COc1cccc([C@](O)(C(=O)N2CCC3(CC2)C[C@@H]3CCCOc2ccc(C(=O)N(C)C)c(Cl)c2)C(F)(F)F)c1 (single isomer, unassigned) [Example 14-7, 2-chloro-N,N-dimethyl-4-(3-((S or R)-6-((S or R)-3,3,3-trifluoro-2-hydroxy-2-(3-methoxyphenyl)propanoyl)-6-azaspiro[2.5]octan-1-yl)propoxyl)benzamide] | 46 |  | 
10 | 7.06 | 110 |  | 25 | CC(C[C@H]1CC12CCN(C(=O)C1(c3ccccc3)CCC1)CC2)Oc1ccc(C(=O)N(C)C)c(Cl)c1 (single isomer, unassigned) [Example 13-1, 2-chloro-N,N-dimethyl-4-((S or R)-1-((R or S)-6-(1-phenylcyclobutanecarbonyl)-6-azaspiro[2.5]octan-1-yl)propan-2-yloxy)benzamide] |  |  | 6.12
11 | 7.18 | 52 |  | 3 | COc1cccc(C(O)(C(=O)N2CCC3(CCC3CCCOc3ccc(C(=O)N(C)C)c(Cl)c3)CC2)C(F)(F)F)c1 (single isomer, unassigned) [Example 36-1, 2-chloro-N,N-dimethyl-4-(3-(7-((R or S)-3,3,3-trifluoro-2-hydroxy-2-(3-methoxyphenyl)propanoyl)-7-azaspiro[3.5]nonan-1-yl)propoxy)benzamide] |  | No IP | 
12 | 7.31 | 104 | 6.06 |  | CN(C)C(=O)c1ccc(OCC[C@@H]2C[C@@H]2C2CCN(C(=O)OCc3ccccc3)CC2)nc1Cl (single isomer, unassigned) [Example 10-7, benzyl 4-((1R,2S or 1S,2R)-2-(2-(6-chloro-5-(dimethylcarbamoyl)pyridin-2-yloxy)ethyl)cyclopropyl) piperidine-1-carboxylate] | 41 |  | 
13 | 7.92 | 60 | 7.32 |  | O=C(c1ccc(OCCCCC2CCN(C(=O)C(O)(c3ccccc3)C(F)(F)F)CC2)cc1Cl)N1CC(F)(F)C1 (single isomer, unassigned) [Example 8-4, (R or S)-1-(4-(4-(3-chloro-4-(3,3-difluoroazetidine-1-carbonyl)phenoxy)butyl)piperidin-1-yl)-3,3,3-trifluoro-2-hydroxy-2-phenylpropan-1-one] | 18 |  | 
14 | 6.80 | 77 |  |  | CN(C)C(=O)c1ccc(OCCCC2CCN(C(=O)c3c(F)cccc3F)CC2)nc1Cl [Example 3-14, 2-chloro-6-(3-(1-(2,6-difluorobenzoyl)piperidin-4-yl)propoxy)-N,N-dimethylnicotinamide] | 46 | No IP | 
15 | 7.15 | 65 | 6.53 |  | CC(C)(C(=O)N1CCC2(CC1)CC(CCOc1ccc(C(=O)N3CCCC3)c(Cl)c1)C2)c1ccccc1 [Example 34-3, 1-(2-(2-(3-chloro-4-(pyrrolidine-1-carbonyl)phenoxy)ethyl)-7-azaspiro[3.5]nonan-7-yl)-2-methyl-2-phenylpropan-1-one] | 13 |  | 
